In PubChem BioAssay (NCI):
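Tested at 5 concentrations; 48 h exposure; 96-well plates; endpoints linearly interpolated, else capped at highest concentration. At the GI50, growth is halved. TGI denotes the concentration required for complete inhibition of growth.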 Where a SMILES comes first, the peptide text is derived from it.

Tests used:
Experiment in all cases: NCI tumour cell line growth inhibition, 48 h
LOX IMVI melanoma = test system: LOX IMVI melanoma
NCI-H23 lung = test system: NCI-H23 lung
IGROV1 ovarian = test system: IGROV1 ovarian
NCI/ADR-RES ovarian = test system: NCI/ADR-RES ovarian
KM12 colon = test system: KM12 colon
HCC-2998 colon = test system: HCC-2998 colon
K-562 leukemia = test system: K-562 leukemia
SK-OV-3 ovarian = test system: SK-OV-3 ovarian
DU-145 prostate = test system: DU-145 prostate
HOP-92 NSCLC = test system: HOP-92 NSCLC

SMILES | TGI (LOX IMVI melanoma) [µM] | GI50 (NCI-H23 lung) [µM] | TGI (NCI-H23 lung) [µM] | GI50 (IGROV1 ovarian) [µM] | TGI (IGROV1 ovarian) [µM] | TGI (NCI/ADR-RES ovarian) [µM] | GI50 (KM12 colon) [µM] | TGI (KM12 colon) [µM] | GI50 (HCC-2998 colon) [µM] | TGI (HCC-2998 colon) [µM] | GI50 (K-562 leukemia) [µM] | TGI (K-562 leukemia) [µM] | GI50 (SK-OV-3 ovarian) [µM] | TGI (SK-OV-3 ovarian) [µM] | TGI (DU-145 prostate) [µM] | TGI (HOP-92 NSCLC) [µM] | GI50 (LOX IMVI melanoma) [µM] | GI50 (NCI/ADR-RES ovarian) [µM] | GI50 (DU-145 prostate) [µM] | GI50 (HOP-92 NSCLC) [µM]
CC(C)CC(NC(=O)C(CC(C)C)NC(=O)C(Cc1cnc[nH]1)NC(=O)C(C)NC(=O)C(NC(=O)C(C)NC(=O)C(Cc1c[nH]c2ccccc12)NC(=O)C(CCC(=O)O)NC(=O)C(N)Cc1ccccc1)C(C)C)C(N)=O (stereo not given) (H-FEWAVAHLL-NH2; configuration not given here) | > 12.5 | > 100 | > 100 | > 100 | > 100 | > 12.5 | > 100 | > 100 | > 100 | > 100 | > 100 | > 100 | > 100 | > 100 | > 12.5 | – | – | – | – | –
Cc1ccccc1NC(=O)C(=O)C(c1cnc2ccc([N+](=O)[O-])cc2n1)[N+](=O)[O-] (stereo not given) | > 100 | – | > 100 | – | > 100 | – | – | > 100 | – | > 100 | – | > 100 | – | > 100 | – | > 100 | – | – | – | –
C#CCOCn1cnc2c(=S)nc[nH]c21 | > 100 | – | > 100 | – | > 100 | – | – | > 100 | – | > 100 | – | > 100 | – | > 100 | – | > 100 | – | – | – | –
COc1ccc(-c2nn(-c3cccc(NC(=O)Nc4ccc(Cl)c(C(F)(F)F)c4)c3)cc2-c2ccncc2)cc1Cl | 10.6 | 3.01 | 14.3 | 3.65 | 29.5 | 9.84 | 2 | 8.55 | 5.51 | 27 | – | – | 4.31 | > 100 | > 100 | – | 2.95 | 2.62 | 4.47 | –
COC(=O)C(=O)C(C(=O)C(=O)Nc1ccc(Cl)cc1C)c1nc2ccc(C(=O)c3ccccc3)cc2[nH]c1=O (stereo not given) | > 100 | – | > 100 | – | > 100 | – | – | > 100 | – | > 100 | – | > 100 | – | > 100 | – | > 100 | – | – | – | –
O=C1C(=O)N(C(=O)c2ccc(Cl)c(Cl)c2)c2ccc(Cl)cc21 | > 100 | – | > 100 | – | > 100 | – | – | > 100 | – | – | – | > 100 | – | > 100 | – | – | – | – | – | –
O=c1c2ccccc2nc(-c2ccc(Br)cc2)n1NC1OC(CO)C(O)C(O)C1O (stereo not given) | – | – | > 100 | – | > 100 | – | – | > 100 | – | > 100 | – | > 100 | – | > 100 | – | > 100 | – | – | – | –
CC(=O)NC(CCCCNC(=O)N(CCCl)N=O)C(=O)NCc1ccccc1 (stereo not given) | – | – | > 100 | – | > 100 | – | – | > 100 | – | > 100 | – | > 100 | – | – | – | > 100 | – | – | – | –
NC(=O)N/N=C(\C(=O)C(=O)Nc1ccc(Cl)c(C(F)(F)F)c1)c1nc2ccc(C(=O)c3ccccc3)cc2[nH]c1=O | – | – | > 100 | – | > 100 | – | – | > 100 | – | > 100 | – | > 100 | – | > 100 | – | 47.3 | – | – | – | –
COC(=O)C1=CN=C(C(=O)OC)NN1 | – | – | > 100 | – | > 100 | – | – | > 100 | – | – | – | > 100 | – | > 100 | – | > 100 | – | – | – | –
Cc1oc2c(C)c(O)c3c(c2c1C1(C)OCCO1)C(=O)C=C(Cl)C3=O | > 100 | – | > 100 | – | > 100 | – | – | > 100 | – | – | – | > 100 | – | – | – | > 100 | – | – | – | –
CN=C1Nc2ccc(Cl)cc2C(c2ccccc2)=NN1C | > 100 | – | > 100 | – | > 100 | – | – | > 100 | – | 64.7 | – | > 100 | – | – | – | 77.5 | – | – | – | –
C[C@@H](CO)OCOCc1ccccc1 | > 100 | – | > 100 | – | > 100 | – | – | > 100 | – | > 100 | – | > 100 | – | > 100 | – | > 100 | – | – | – | –
COC(=O)C1(C(=O)OC)CC2c3c(c4ccccc4n3C)CC(C1=O)N2Cc1ccccc1 (stereo not given) | > 100 | – | > 100 | – | > 100 | – | – | > 100 | – | > 100 | – | > 100 | – | > 100 | – | > 100 | – | – | – | –
N.N.N.N.N.N.[I-].[Os] | > 100 | > 100 | > 100 | > 100 | > 100 | – | > 100 | > 100 | > 100 | > 100 | > 100 | > 100 | > 100 | > 100 | – | > 100 | > 100 | – | – | > 100
C/C=C/C=N/N(C(=O)c1cc([N+](=O)[O-])cc([N+](=O)[O-])c1)C1=NC(c2ccccc2)C(c2ccccc2)=NN1 (stereo not given) | > 100 | – | 77.9 | – | > 100 | – | – | > 100 | – | > 100 | – | > 100 | – | > 100 | – | 62.2 | – | – | – | –
Cc1cc(O)c(C(c2cccnc2)c2c(O)cc(C)[nH]c2=O)c(=O)[nH]1 | > 100 | – | > 100 | – | > 100 | > 100 | – | > 100 | – | – | – | > 100 | – | > 100 | > 100 | – | – | – | – | –
COc1cc2nc(Sc3c([N+](=O)[O-])ncn3C)[nH]c2cc1OC | > 100 | – | > 100 | – | > 100 | – | – | > 100 | – | > 100 | – | – | – | > 100 | – | 45 | – | – | – | –
